Key:
[1] = test system: rat bladder smooth muscle; assay: Organ bath assay: 80 mM KCl contractile inhibition assay
Protocol: The concentration of each fatty acid was set according to the amount thereof present in a 95% ethanol extract of akamoku (Japan Food Research Laboratories; JFRL quantitative analysis). […] Ethanol was used as a control. As in the example described above, 80 mM KCl, a contraction inducer, was also added to induce contraction. The tension (contractile force) of slices of rat bladder smooth muscle was then measured to evaluate contraction inhibition effects. […]
The maximum concentration of each fatty acid was set according to the amount thereof present in a 95% ethanol extract of akamoku (JFRL quantitative analysis). Concentrations of 7.1 μg/mL EPA, 21.3 μg/mL EPA, 71 μg/mL EPA, 4.7 μg/mL stearidonic acid, 14.1 μg/mL stearidonic acid, and 47 μg/mL stearidonic acid were set. As in the examples described above, 80 mM KCl, a contraction inducer, was also added to induce contraction. The tension (contractile force) of slices of rat bladder smooth muscle was then measured to evaluate contraction inhibition effects.

[2] = test system: acetic-acid-induced pollakiuria model rats; assay: In vivo assay (cystometry) using acetic-acid-induced pollakiuria model rats; set-up: species or system rat; settings: 0.5 mg/kg oral (MC solution)
Protocol: In this experiment, 0.1% acetic acid diluted with normal saline was directly injected into the bladders of urethane-anesthetized rats to induce bladder hypersensitivity and create model rats having symptoms of acute (or chronic) pollakiuria, and in vivo assays were performed using these acetic-acid-induced pollakiuria model rats. […] In this way, the effects of the 95% ethanol extract of akamoku upon pollakiuric states in rats were investigated.
control (vehicle)=0.5% methyl cellulose (MC); and akamoku extract=50 mg/mL MC solution of akamoku extract.
• Maximum intravesical pressure (voiding pressure) • Base pressure • Threshold pressure • Voiding interval • Volume per void
Using the model rats with symptoms of acute (chronic) pollakiuria created in experiment 13, a 50 mg/mL MC solution of 50% ethanol extract of akamoku was orally administered to the model rats (n=7). In the graphs in FIG. 18, measured parameters are the voiding intervals, volume per void, and voiding frequency per unit of time of the rats, and pollakiuria-symptomatic model rats are compared with control rats receiving 0.5% methyl cellulose (MC) solution. In this way, the effects of the 50% ethanol extract of akamoku upon pollakiuric states in rats are investigated.
Using the model rats with symptoms of acute (chronic) pollakiuria created in experiment 13, a 50 mg/mL aqueous solution of aqueous akamoku extract was orally administered to the model rats. In the graphs in FIG. 19, measured parameters are the voiding intervals, volume per void, and voiding frequency per unit of time of the rats, compared with control rats receiving ultrapure water. In this way, the effects of the aqueous akamoku extract upon pollakiuric states in rats are investigated.
Using the model rats with symptoms of acute (chronic) pollakiuria created in experiment 13, 0.5 mg/kg akamoku-derived fucoxanthin Fx (MC solution) was orally administered to the model rats. […] In the graphs in FIG. 20, measured parameters are the voiding intervals, volume per void, and voiding frequency per unit of time of the rats, compared with control rats receiving 0.5% methyl cellulose (MC) solution.

## CC/C=C\C/C=C\C/C=C\C/C=C\C/C=C\CCCC(=O)O [EPA, eicosapentaenoic acid]
[1]; 71 μg/mL, 80 mM KCl
  average contraction compared to 100% uninhibited contraction: 73.3%
[1]; Rattus norvegicus, 7.1 μg/mL, 80 mM KCl, read-out: average contraction compared to 100% uninhibited contraction
  activity at 7.1 µg/mL: 91.1%
[1]; Rattus norvegicus, 21.3 μg/mL, 80 mM KCl, read-out: average contraction compared to 100% uninhibited contraction
  activity at 21.3 µg/mL: 87.2%
[1]; Rattus norvegicus, 71 μg/mL, 80 mM KCl, read-out: average contraction compared to 100% uninhibited contraction
  activity at 71 µg/mL: 78.2%

## CC(=O)O[C@H]1CC(C)(C)C(=C=C/C(C)=C/C=C/C(C)=C/C=C/C=C(C)/C=C/C=C(\C)C(=O)C[C@@]23O[C@]2(C)C[C@@H](O)CC3(C)C)[C@](C)(O)C1 [akamoku-derived fucoxanthin, fucoxanthin]
[2]
  improvement in 0.1% acetic-acid-induced pollakiuria: significant improvement
  voiding frequency per unit of time: decreased
  voiding interval: tended to increase
  volume per void: increased

## CCCCC/C=C\C/C=C\C/C=C\C/C=C\CCCC(=O)O [arachidonic acid]
[1]; Rattus norvegicus, 44 μg/mL, 80 mM KCl, read-out: average contraction compared to 100% uninhibited contraction
  activity at 44 µg/mL: 82%

## CC/C=C\C/C=C\C/C=C\C/C=C\CCCCC(=O)O [stearidonic acid]
[1]; 47 μg/mL, 80 mM KCl
  average contraction compared to 100% uninhibited contraction: 75.6%
[1]; Rattus norvegicus, 4.7 μg/mL, 80 mM KCl, read-out: average contraction compared to 100% uninhibited contraction
  activity at 4.7 µg/mL: 87.8%
[1]; Rattus norvegicus, 14.1 μg/mL, 80 mM KCl, read-out: average contraction compared to 100% uninhibited contraction
  activity at 14.1 µg/mL: 89.5%
[1]; Rattus norvegicus, 47 μg/mL, 80 mM KCl, read-out: average contraction compared to 100% uninhibited contraction
  activity at 47 µg/mL: 68.5%
[1]; fatty acid at amount present in 95% ethanol extract of akamoku (EPA 71 μg/mL, stearidonic acid 47 μg/mL)
  inhibition of 80 mM KCl contraction: significantly inhibited contraction

## CC/C=C\C/C=C\C/C=C\CCCCCCCC(=O)O [α-linolenic acid]
[1]; Rattus norvegicus, 36 μg/mL, 80 mM KCl, read-out: average contraction compared to 100% uninhibited contraction
  activity at 36 µg/mL: 86.8%
